The record followed here is PubChem BioAssay (NCI).

Common to all, as to experiment: NCI-60 cell line screen, 48 h
In assay [1] the test system is MALME-3M melanoma.
Assay [2] concerns NCI-H226 lung.
Assay [3] deals with RPMI-8226 leukemia.
The subject of assay [4] is SN12C renal.
Assay [5] concerns SNB-75 CNS.
Assay [6] deals with ACHN renal.
Assay [7] relates to OVCAR-8 ovarian.
The test system of assay [8] is NCI-H23 lung.
Assay [9] deals with IGROV1 ovarian.
Assay [10] deals with LOX IMVI melanoma.

“And” between values parts separate entries of the source, which are not always exact repeats. Identical values can stand only once.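 Cells were grown in 96-well plates and exposed to each compound for 48 hours at five concentrations; endpoints were interpolated linearly between bracketing concentrations, or set to the highest concentration if not reached. GI50 is the concentration that inhibits growth by half. TGI: total growth inhibition.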

Regarding `COC(=O)Nc1nc2c(OC)c(OC)c(OC)cc2[nH]1`, the GI50 in assay [1] was 16.4 µM; in [2], 61.4 µM; in assay [3], 35.6 µM; in assay [4] it was 74 µM; in assay [5], 15.4 µM; in [6] it was 81.9 µM. Further, the GI50 in assay [7] was 38.7 µM; in assay [8] it was 39.1 µM; in [9], 22.1 µM; in assay [10] it was 49 µM. Also, the TGI in assay [1] is over 100 µM; in [2], over 100 µM; in [3], over 100 µM; in assay [4], over 100 µM; in [5], over 92.6 µM; in assay [6] it was over 100 µM. The TGI in assay [7], in assay [8], in assay [9] and in assay [10] was over 100 µM in each case.
Take `COc1cc(C2[C@H]3C(=O)N(c4ccc(Cc5ccc(N6C(=O)[C@@H]7ON(c8ccccc8)C(c8cc(OC)c(OC)c(OC)c8)[C@@H]7C6=O)cc5)cc4)C(=O)[C@H]3ON2c2ccccc2)cc(OC)c1OC` (some centres undefined): the TGI in assay [1], in [2], in assay [3], in assay [4], in assay [5] and in assay [6] was over 100 µM in each case. In addition, the TGI in [7], in [8], in assay [9] and in assay [10] was over 100 µM each time.
As for `O=C(Cc1ccccc1)Nc1nnc(CCSCCc2nnc(NC(=O)Cc3ccccc3)s2)s1`, the GI50 is 13.5 µM in assay [1]; 29.9 µM in assay [2]; 5.67 µM in assay [3]; 5.34 µM in assay [4]; 5.18 µM in assay [5]; over 100 µM in assay [6]. Also, the GI50 was 6.12 µM in assay [7], 28.8 µM in [8], 25.9 µM in assay [9] and 1.72 µM in [10]. Besides, the TGI in assay [1] is 48.9 µM; in assay [2], 97.4 µM; in assay [3] it was over 100 µM; in [4] it was 44.7 µM; in assay [5], 24.3 µM; in assay [6], over 100 µM. Also, the TGI in assay [7] is over 100 µM; in [8], over 100 µM; in assay [9] it was over 100 µM; in assay [10], 11.1 µM.
`Cc1cn(C2C=CC(=O)C(C)O2)c(=O)[nH]c1=O` (centres undefined): the TGI in assay [1] was 25.9 µM; in assay [2] it was 42.1 µM; in assay [3], 47.9 µM; in [4], 29.8 µM; in assay [5], 29.1 µM; in [6] it was 31.3 µM. Further, the TGI is 35.5 µM in assay [7], 37.1 µM in [8], 34.4 µM in [9] and 26.6 µM in assay [10].
Regarding `CC[C@](O)(C(=O)O)c1cc2n(c(=O)c1CO)Cc1cc3ccccc3nc1-2`, the GI50 in assay [1] was 0.0642 µM and 0.272 µM; in [3], 0.00677 µM and 0.0458 µM; in [4], 0.00365 µM and < 0.0193 µM; in [5], 0.00391 µM and 0.016 µM; in assay [7], 0.0292 µM and 0.0262 µM and 0.0353 µM; in [8], 0.0058 µM and 0.0215 µM. Also, the GI50 was 0.0299 µM and 0.197 µM in [9]; 0.00507 µM and 0.0264 µM in assay [10]. In addition, the TGI in [1] was 4.75 µM and 4.12 µM and 0.807 µM; in assay [2], 0.866 µM and 0.332 µM and 1.62 µM; in assay [4], 0.822 µM and 0.121 µM; in [5], 0.201 µM and 0.0714 µM and 0.343 µM; in assay [6], 0.0211 µM; in assay [10], 0.307 µM and 0.686 µM and 0.652 µM.
As to `c1ccc(Cn2cc3c(c2)-c2oncc2CC3)cc1`, the GI50 in assay [1] was 17.9 µM; in [2] it was 5.91 µM; in assay [3], 0.285 µM; in [4], 2.26 µM; in assay [5] it was 1.11 µM; in assay [6], 7.74 µM. Further, the GI50 is 2.79 µM in [7], 1.77 µM in [8], 1.27 µM in assay [9] and 1.66 µM in assay [10]. The TGI in [1] was over 67.8 µM; in [2] it was 99.1 µM; in assay [3] it was 2.38 µM; in assay [4] it was over 100 µM; in [5], 27 µM; in assay [6] it was over 100 µM. For the same molecule, the TGI is over 39.1 µM in assay [7], over 100 µM in assay [8], over 100 µM in [9] and over 57.9 µM in assay [10].
For the molecule `CCN(CC)c1ccc(/C=C/C(=O)c2cccc(NS(C)(=O)=O)c2)cc1`, the GI50 in [1] is 5.79 µM; in [2], 74 µM; in assay [3] it was 2.34 µM; in assay [4] it was 6.69 µM; in assay [5], 10.6 µM; in [6], 6.2 µM. For the same molecule, the GI50 is over 100 µM in assay [7], 4.51 µM in assay [8], over 100 µM in assay [9] and 3.13 µM in [10]. Also, the TGI is over 100 µM in assay [1]; over 100 µM in assay [2]; 20.8 µM in assay [3]; over 100 µM in assay [4]; over 100 µM in [5]; over 100 µM in [6]. Besides, the TGI in [7], in assay [8], in assay [9] and in assay [10] was over 100 µM each time.
In the case of `COc1ccc(-c2cc(-c3ccccc3)c(C#N)c(=O)[nH]2)cc1`, the TGI in assay [1], in assay [2], in [3], in assay [4], in [5] and in assay [6] was over 100 µM in each case. Also, the TGI in assay [7], in assay [8], in [9] and in assay [10] was over 100 µM each time.
For the molecule `O=C1c2c(c3c4ccccc4n4c3c3c2c2ccccc2n3C/C=C\C4)C(=O)N1Cc1ccccc1`, the TGI was over 100 µM in assay [1]; over 100 µM in [2]; over 100 µM in [3]; over 100 µM in assay [4]; 68.9 µM in assay [5]; over 100 µM in assay [6]. The TGI in assay [7], in assay [8], in assay [9] and in assay [10] was over 100 µM throughout.
